In patent US10206893B2, “Immunoregulatory agents” (Flexus Biosciences, Inc., priority 2014, dated 2019):

target: T1, human IDO1 (Homo sapiens, UniProt P14902); assay: IDO inhibition assay in HEK293 cells stably expressing human IDO1 (kynurenine, Ehrlich reagent); assay type: cell-based; conditions: 20 hours incubation, read-out: HEK Human IDO-1 Bio Activity
T1 construct: expressed in transfected cells
Experimental: They were cultured in medium (DMEM with 10% FBS) containing 1 mg/ml G418 for two weeks.
The human IDO1/HEK293 cells were seeded at 10,000 cells per 50 μL per well with RPMI/phenol red free media contains 10% FBS in a 384-well black wall clear bottom tissue culture plate (Matrix Technologies LLC) 100 nL of certain concentration of compound was then added to each well using ECHO liquid handling systems. The cells were incubated for 20 hours in 37° C. incubator with 5% CO2.
The compound treatments were stopped by adding trichloroacetic acid (Sigma-Aldrich) to a final concentration at 0.2%. The cell plate was further incubated at 50° C. for 30 minute. The equal volume supernatant (20 μL) and 0.2% (w/v) Ehrlich reagent (4-dimethylaminobenzaldehyde, Sigma-Aldrich) in glacial acetic acid were mixed in a new clear bottom 384-well plate. This plate was then incubated at room temperature for 30 minute. The absorbance at 490 nm was measured on Envision plate reader.

T1 sequence (P14902 whole entry): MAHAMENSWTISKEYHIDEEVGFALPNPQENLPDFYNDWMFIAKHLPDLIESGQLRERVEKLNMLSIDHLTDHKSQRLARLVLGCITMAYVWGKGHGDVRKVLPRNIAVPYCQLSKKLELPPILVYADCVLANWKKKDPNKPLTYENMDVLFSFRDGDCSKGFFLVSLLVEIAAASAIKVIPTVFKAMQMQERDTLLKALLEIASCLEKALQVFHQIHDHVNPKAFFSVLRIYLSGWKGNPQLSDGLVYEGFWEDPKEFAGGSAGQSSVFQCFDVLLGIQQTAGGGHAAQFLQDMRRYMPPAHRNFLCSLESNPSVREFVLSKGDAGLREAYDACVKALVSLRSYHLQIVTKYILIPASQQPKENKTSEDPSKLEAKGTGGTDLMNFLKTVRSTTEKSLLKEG

IC50 | Compound
< 2000 nM | Cc1nccc(C2CCC(C(C)NC(=O)c3ccc(Cl)cc3)CC2)c1C (single isomer, unassigned) [Example 159e, 4-chloro-N-(1-(4-(2,3-dimethylpyridin-4-yl)cyclohexyl)ethyl)benzamide]
< 50 nM | Cc1c(C2CCC(C(C)NC(=O)c3ccc(Cl)cc3)CC2)ccnc1F (single isomer, unassigned) [Example 158d, 4-chloro-N-(1-(4-(2-fluoro-3-methylpyridin-4-yl)cyclohexyl)ethyl)benzamide]
< 50 nM | Cc1c(C2CCC(C(C)NC(=O)c3ccc(Cl)cc3)CC2)ccnc1F (single isomer, unassigned) [Example 158c, 4-chloro-N-(1-(4-(2-fluoro-3-methylpyridin-4-yl)cyclohexyl)ethyl)benzamide]
< 50 nM | Cc1nccc(C2CCC(C(C)NC(=O)c3ccc(Cl)cc3)CC2)c1C (single isomer, unassigned) [Example 159d, 4-chloro-N-(1-(4-(2,3-dimethylpyridin-4-yl)cyclohexyl)ethyl)benzamide]

More lines, now with the values behind:

Compound | IC50
COc1ccc(-c2ccc(C(=O)N[C@H](C)[C@H]3CC[C@@H](c4ccnc5ccc(F)cc54)CC3)cc2)nc1 [Example 239, N-((R)-1-((1s,4S)-4-(6-fluoroquinolin-4-yl)cyclohexyl)ethyl)-4-(5-methoxypyridin-2-yl)benzamide] | < 50 nM
CC(NC(=O)c1ccc(Cl)cc1)C1CCC(c2ccncc2F)CC1 (single isomer, unassigned) [Example 161a, 4-chloro-N-(1-(4-(3-fluoropyridin-4-yl)cyclohexyl)ethyl)benzamide] | < 2000 nM
N#Cc1ccc(NC(=O)N[C@H]2CC[C@H](c3ccnc4ccc(F)cc43)CC2)cc1 [Example 121] | < 250 nM
Cc1c(C2CCC(C(C)NC(=O)c3ccc(Cl)cc3)CC2)ccnc1F (single isomer, unassigned) [Example 158e, 4-chloro-N-(1-(4-(2-fluoro-3-methylpyridin-4-yl)cyclohexyl)ethyl)benzamide] | < 2000 nM
CC(NC(=O)c1ccc(Cl)cc1)C1CCC(c2ccncc2F)CC1 (single isomer, unassigned) [Example 161c, 4-chloro-N-(1-(4-(3-fluoropyridin-4-yl)cyclohexyl)ethyl)benzamide] | < 250 nM
Cc1c(C2CCC(C(C)NC(=O)c3ccc(Cl)cc3)CC2)ccnc1F (single isomer, unassigned) [Example 158b, 4-chloro-N-(1-(4-(2-fluoro-3-methylpyridin-4-yl)cyclohexyl)ethyl)benzamide] | < 50 nM
Cc1cnccc1C1CCC(C(C)NC(=O)c2ccc(Cl)cc2)CC1 (single isomer, unassigned) [Example 160d, 4-chloro-N-(1-(4-(3-methylpyridin-4-yl)cyclohexyl)ethyl)benzamide] | < 250 nM
CC[C@@H](NC(=O)c1ccc(-c2ccccc2)cc1)[C@H]1CC[C@H](c2cnc3ccccc3c2)CC1 [Example 201, N—((R)-1-((1r,4R)-4-(quinolin-3-yl)cyclohexyl)propyl)-[1,1′-biphenyl]-4-carboxamide] | < 250 nM
CC(NC(=O)c1ccc(Cl)cc1)C1CCC(c2ccncc2F)CC1 (single isomer, unassigned) [Example 161b, 4-chloro-N-(1-(4-(3-fluoropyridin-4-yl)cyclohexyl)ethyl)benzamide] | < 50 nM
(R)-1-(cis-4-(6-fluoroquinolin-4- yl)cyclohexyl)-N-methylethanamine [Example 194] | < 50 nM
Cc1cnccc1C1CCC(C(C)NC(=O)c2ccc(Cl)cc2)CC1 (single isomer, unassigned) [Example 160e, 4-chloro-N-(1-(4-(3-methylpyridin-4-yl)cyclohexyl)ethyl)benzamide] | < 50 nM
CCC(NC(=O)c1ccc(-c2ccccc2)cc1)[C@H]1CC[C@@H](c2cnc3ccccc3c2)CC1 (stereo partly shown) [Example 200] | < 250 nM
Cc1nccc(C2CCC(C(C)NC(=O)c3ccc(Cl)cc3)CC2)c1C (single isomer, unassigned) [Example 159b, 4-chloro-N-(1-(4-(2,3-dimethylpyridin-4-yl)cyclohexyl)ethyl)benzamide] | < 250 nM

target: T2, indoleamine 2,3-dioxygenase (IDO) (Homo sapiens, UniProt P14902); assay: HeLa cell-based indoleamine 2,3-dioxygenase (IDO) assay (IFNγ-induced kynurenine production); conditions: Tables 3-7; compounds shown only as drawings; read-out: Potency (IDO IC50)
T2 construct: host or cells: HeLa cells, IDO induced with IFNγ (25 ng/mL)
T2 sequence (P14902 whole entry): as above
Experimental: Assessment of inhibitor activity in HeLa cell-based indoleamine 2,3-dioxygenase (IDO) assay.
HeLa (ATCC® CCL-2) cells were obtained from the ATCC® and cultured in Dulbecco's Modified Eagle Medium supplemented with 4.5 g/L glucose, […] (#10-013-CV, Corning), 2 mM L-alanyl-L-glutamine dipeptide (#35050-061, Gibco), 100 U/mL penicillin, 100 μg/mL streptomycin (#SV30010, HyClone) and 10% fetal bovine serum (#SH30071.03 HyClone). Cells were maintained in a humidified incubator at 37° C. in 5% CO2.
IDO activity was assessed as a function of kynurenine production as follows: HeLa cells were seeded in a 96-well culture plate at a density of 5,000 cells/well and allowed to equilibrate overnight. After 24 hours, the media was aspirated and replaced with media containing IFNγ (#285-IF/CF, R&D Systems) at a final concentration of 25 ng/mL. A serial dilution of each test compound was added to the cells in a total volume of 200 μL of culture medium. After a further 48 hour incubation, 170 μL of supernatant was transferred from each well to a fresh 96-well plate. 12.1 μL of 6.1N trichloroacetic acid (#T0699, Sigma-Aldrich) was added to each well and mixed, followed by incubation at 65° C. for 20 minutes to hydrolyze N-formylkynurenine, the product of indoleamine 2,3-dioxygenase, to kynurenine. The reaction mixture was then centrifuged for 10 mins at 500×g to sediment the precipitate. 100 μL of the supernatant was transferred from each well to a fresh 96-well plate. 100 μl of 2% (w/v) p-dimethylaminobenzaldehyde (#15647-7, Sigma-Aldrich) in acetic acid (#A6283, Sigma-Aldrich) was added to each well mixed and incubated at room temperature for 20 mins. Kynurenine concentrations were determined by measuring absorbance at 480 nm and calibrating against an L-kynurenine (#K8625, Sigma-Aldrich) standard curve using a SPECTRAMAX® M2e microplate reader (Molecular Devices). The percentage activity at each inhibitor concentration was determined and IC50 values assessed using nonlinear regression.
Activity for compounds described herein is provided in Tables 3-7, wherein potency levels are provided as follows: (Potency: IDO IC50: A<0.1 μM; B<1 μM; C<10 μM)

IC50 | Compound
< 250 nM | COc1ccc([C@H]2CC[C@H](NC(=O)Cc3ccc(Cl)cc3)CC2)cc1
< 2000 nM | COc1ccc(NC(=O)[C@H]2CC[C@H](Cc3ccccc3)CC2)cc1
< 50 nM | O=C(Nc1ccc(F)cc1)N[C@H]1CC[C@H](c2ccccc2)CC1
< 2000 nM | O=C(c1ccc(Cl)cc1)N1CCC(Cc2ccccc2)CC1
< 50 nM | O=C(NC[C@H]1CC[C@@H](c2ccccc2)CC1)c1ccc(F)cc1
< 250 nM | O=C(Cc1ccc(Cl)cc1)N[C@H]1CC[C@H](c2ccnc3ccccc32)CC1
< 50 nM | O=C(Nc1cccc(Cl)c1)N[C@H]1CC[C@H](c2ccccc2)CC1
< 2000 nM | O=C(Nc1ccc(F)cc1)[C@H]1CC[C@@H](Cc2ccccc2)CC1
< 250 nM | O=C(Nc1ccc(Cl)cc1)N[C@H]1CC[C@@H](c2ccccc2)CC1
< 50 nM | O=S(=O)(CC1CCC(c2ccnc3ccccc23)CC1)Nc1ccc(Cl)cc1 (stereo not shown)
< 250 nM | O=C(NC[C@H]1CC[C@@H](c2ccccc2)CC1)c1ccc(Cl)cc1
< 50 nM | N#Cc1cccc(C(=O)NC[C@H]2CC[C@@H](c3ccccc3)CC2)c1
< 2000 nM | O=C(Nc1ccc(Cl)cc1)[C@H]1CC[C@@H](Cc2ccccc2)CC1
< 2000 nM | O=C(Nc1ccc(Cl)cc1)N1CCC(Oc2ccccc2)CC1
< 2000 nM | O=C(Nc1ccc(F)cc1)OC[C@H]1CC[C@@H](c2ccccc2)CC1
< 50 nM | O=C(Nc1ccc(Cl)cc1)N[C@H]1CC[C@H](c2ccccc2)CC1
< 2000 nM | O=C(Nc1ccc(Cl)cc1)[C@H]1CC[C@H](Cc2ccccc2)CC1
< 2000 nM | O=C(Nc1ccc(Cl)cc1)O[C@H]1CC[C@@H](c2ccccc2)C1
< 2000 nM | O=C(Cc1ccc(Cl)cc1)N[C@H]1CC[C@@H](c2ccccc2)CC1
< 2000 nM | COc1ccc([C@H]2CC[C@H](CCNc3ccc(Cl)cc3)CC2)cc1
< 250 nM | O=C(Nc1ccc(Cl)cc1)C1CCC(Oc2ccccc2)CC1 (stereo not shown)
< 250 nM | COc1ccc([C@H]2CC[C@@H](CCNc3ccc(Cl)cc3)CC2)cc1
< 2000 nM | N#Cc1ccc(NC(=O)[C@H]2CC[C@H](Cc3ccccc3)CC2)cc1
< 50 nM | O=C(Cc1cccc(Cl)c1)N[C@H]1CC[C@H](c2ccccc2)CC1
< 2000 nM | COc1ccc(C2CCC(CC(=O)NCc3ccccc3)CC2)cc1 (stereo not shown)

Further lines, the compound ahead of its results:

Compound | IC50
O=C(NC[C@H]1CC[C@@H](c2ccccc2)CC1)c1cccc(Cl)c1 | < 50 nM
O=S(=O)(NC[C@H]1CC[C@@H](c2ccccc2)CC1)c1ccc(Cl)cc1 | < 250 nM
N#Cc1ccc(CC(=O)N[C@H]2CC[C@H](c3ccccc3)CC2)cc1 | < 250 nM
COc1ccc([C@H]2CC[C@@H](CC(=O)NCc3ccccc3)CC2)cc1 | < 250 nM
COc1ccc(C2CCC(CC(Nc3ccc(F)cc3)C(F)(F)F)CC2)cc1 (stereo not shown) | < 50 nM
N#Cc1ccc(NC(=O)[C@H]2CC[C@@H](Cc3ccccc3)CC2)cc1 | < 2000 nM
O=C(c1cccc(Cl)c1)N1CCC(Cc2ccccc2)CC1 | < 2000 nM
COc1ccc(C2CCC(CC(Nc3ccc(Cl)cc3)C(F)(F)F)CC2)cc1 (stereo not shown) | < 50 nM
O=C(Nc1ccc(F)cc1)[C@H]1CC[C@H](Cc2ccccc2)CC1 | < 2000 nM
O=C(Nc1cccc(Cl)c1)N[C@H]1CC[C@@H](c2ccccc2)CC1 | < 250 nM
CC(C(=O)N[C@H]1CC[C@H](c2ccccc2)CC1)c1ccc(C#N)cc1 (stereo partly shown) | < 50 nM
N#Cc1ccc(C(=O)NC[C@H]2CC[C@@H](c3ccccc3)CC2)cc1 | < 250 nM
COc1ccc(NC(=O)[C@H]2CC[C@@H](Cc3ccccc3)CC2)cc1 | < 2000 nM
